Assay results: paper PMC9368490, “Exploring the Molecular Interactions of Symmetrical and Unsymmetrical Selenoglycosides with Human Galectin-1 and Galectin-3” (International Journal of Molecular Sciences, 2022)

Assays:
Gal-1 = target: T1, Gal-1 (Homo sapiens, UniProt P09382); assay: biochemical
T1 construct: gene LGALS1

Gal-3^CRD = target: T2, Gal-3^CRD (Homo sapiens, UniProt P17931); assay: biochemical
T2 construct: gene LGALS3
T2 sequence (P17931 112-250): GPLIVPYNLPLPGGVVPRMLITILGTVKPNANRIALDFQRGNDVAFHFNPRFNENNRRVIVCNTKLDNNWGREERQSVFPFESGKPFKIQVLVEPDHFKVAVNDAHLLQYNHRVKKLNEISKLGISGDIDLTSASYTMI

T1 sequence (P09382 whole entry): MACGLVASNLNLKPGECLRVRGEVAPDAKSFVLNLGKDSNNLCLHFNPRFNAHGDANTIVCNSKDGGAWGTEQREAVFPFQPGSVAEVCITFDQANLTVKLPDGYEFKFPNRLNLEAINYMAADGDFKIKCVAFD

OC[C@H]1O[C@@H]([Se][C@@H]2O[C@H](CO)[C@H](O)[C@H](O)[C@H]2O)[C@H](O)[C@@H](O)[C@H]1O [SeDG]
Kd (Gal-1): 23.7 ± 4.2 µM
Kd (Gal-3^CRD): 20.2 ± 2.2 µM
